The values that follow come from ChEMBL document CHEMBL1201862, “PubChem BioAssay data set” (2004).

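1) Cells in 96-well plates. 2) Compound, 48 h, 5 concentrations. 3) Linear interpolation between surrounding doses. 4) Unreached endpoint = highest concentration. Here, GI50 denotes the concentration required for 50% inhibition of growth.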 Calls of active or inactive are those of the source. Cut-off read from the data, not from the text of the source: active = GI50 up to about 1.1 µM and inactive = higher.

Some test systems named below: SK-MEL-28; LXFL 529; NCI-H23; SF-539; HCT-15; CCRF-CEM; HCT-116; K562; ACHN; OVCAR-8; HOP-62; SN12C; SF-295; UO-31; HL-60; BT-549; MDA-MB-435; T47D; NCI/ADR-RES.
Holding throughout (assay): NCI-60 cell line screen, 48 h

With `CCCN(CCCCC(NC(C)=O)C(=O)NCc1ccccc1)C(=O)NC` (stereo not drawn), the GI50 with SK-MEL-28 is > 100 µM (inactive); with LXFL 529, > 100 µM (inactive); in the test with NCI-H23 it was > 100 µM (inactive); in the test on SF-539 it was > 100 µM (inactive); with HCT-15, greater than 100 µM; in the test on CCRF-CEM it was > 100 µM (inactive). The GI50 with HCT-116, in the test with K562, in the test with ACHN, in the test on OVCAR-8, in the test on HOP-62 and with SN12C was > 100 µM (inactive) in each case. Besides, the GI50 in the test with SF-295 and in the test with UO-31 was > 100 µM (inactive) each time.
With `NNC(=O)N/N=C(/CC1(O)C(=O)Nc2ccc(Br)cc21)c1ccccc1` (stereo not drawn), the GI50 in the test with SK-MEL-28 is 28.2 µM (inactive); with LXFL 529, 23.4 µM (inactive); in the test on NCI-H23, 29 µM (inactive); with SF-539 it was 23.9 µM (inactive); in the test on HCT-15, 61.1 µM; in the test with HL-60, 21.9 µM (inactive). Further, the GI50 in the test on CCRF-CEM is 27.1 µM (inactive); in the test on HCT-116, 27.9 µM (inactive); in the test on K562, 30.5 µM (inactive); with ACHN, 24.3 µM (inactive); in the test with SN12C it was 29.2 µM (inactive); with SF-295, 38.6 µM (inactive). Further, in the test on UO-31, the GI50 was 12.5 µM (inactive).
Consider `O=C1Nc2c(Cl)cccc2/C1=N/Nc1ccccc1[N+](=O)[O-]`, for which the GI50 with SK-MEL-28 was 35.1 µM (inactive); in the test on BT-549, 28 µM (inactive); with NCI-H23 it was 13.5 µM (inactive); with SF-539 it was 16.7 µM (inactive); with HCT-15, 29.9 µM; in the test with HL-60 it was 70.1 µM (inactive). Moreover, the GI50 with CCRF-CEM was 46 µM (inactive); in the test on HCT-116, 29.7 µM (inactive); in the test on K562, 36.9 µM (inactive); in the test with ACHN, 11.9 µM (inactive); with OVCAR-8 it was 12.4 µM (inactive); in the test with HOP-62 it was 9.27 µM (inactive). Moreover, the GI50 with MDA-MB-435 is 28.2 µM (inactive); in the test with T47D, 22.2 µM (inactive); in the test with SN12C it was 28.9 µM (inactive); with SF-295, 9.02 µM (inactive); with UO-31, 22.1 µM (inactive); in the test on NCI/ADR-RES, 11.5 µM (inactive).
Regarding `O=C(/C=C/NC(=O)OCc1ccccc1)OCc1ccccc1`, the GI50 with SK-MEL-28 is > 100 µM (inactive); in the test with BT-549, > 100 µM (inactive); in the test with NCI-H23, > 100 µM (inactive); in the test with SF-539, 64.9 µM (inactive); with HCT-15, greater than 100 µM; with HL-60 it was > 100 µM (inactive). For the same compound, the GI50 with CCRF-CEM, in the test on HCT-116, in the test on K562, in the test with ACHN, in the test with OVCAR-8 and with HOP-62 was > 100 µM (inactive) each time. Further, the GI50 is > 100 µM (inactive) in the test with MDA-MB-435; > 100 µM (inactive) in the test with T47D; > 100 µM (inactive) in the test with SN12C; > 100 µM (inactive) in the test with SF-295; 32.5 µM (inactive) in the test on UO-31; > 100 µM (inactive) in the test on NCI/ADR-RES.
As to `N#Cc1cnn2ccn(C3OC(COC(=O)c4ccccc4)C(OC(=O)c4ccccc4)C3OC(=O)c3ccccc3)c12` (stereo not drawn), the GI50 in the test with SK-MEL-28 was > 21.5 µM (inactive); with BT-549, > 100 µM (inactive); in the test on NCI-H23, > 21.5 µM (inactive); in the test with SF-539, > 21.5 µM (inactive); in the test on HCT-15 it was greater than 21.5 µM; in the test with HL-60, > 21.5 µM (inactive). Further, the GI50 in the test with CCRF-CEM was > 21.5 µM (inactive); in the test with HCT-116, > 21.5 µM (inactive); with K562, > 21.5 µM (inactive); in the test on ACHN it was > 21.5 µM (inactive); in the test with OVCAR-8 it was > 46.5 µM (inactive); in the test on HOP-62 it was > 21.5 µM (inactive). The GI50 with MDA-MB-435 was > 21.5 µM (inactive); in the test with T47D, 19.1 µM (inactive); in the test with SN12C, > 21.5 µM (inactive); with SF-295, > 21.5 µM (inactive); with UO-31, > 21.5 µM (inactive); in the test with NCI/ADR-RES, > 21.5 µM (inactive).
`CCOc1c(OC)cc(CNNc2nccs2)cc1OC`: the GI50 in the test on SK-MEL-28 was > 100 µM (inactive); with BT-549, 41.5 µM (inactive); with NCI-H23 it was 62.4 µM (inactive); in the test with SF-539, > 100 µM (inactive); in the test with HCT-15 it was 28 µM; in the test on HL-60 it was 13.4 µM (inactive). Further, the GI50 was > 100 µM (inactive) in the test on CCRF-CEM; > 100 µM (inactive) with HCT-116; 24 µM (inactive) in the test with K562; > 100 µM (inactive) in the test with ACHN; > 100 µM (inactive) in the test on OVCAR-8; > 100 µM (inactive) in the test on HOP-62. Further, the GI50 in the test on MDA-MB-435 was 54.2 µM (inactive); in the test with T47D, 11.7 µM (inactive); in the test on SN12C, > 100 µM (inactive); in the test on SF-295 it was > 100 µM (inactive); in the test with UO-31 it was 71.9 µM (inactive); with NCI/ADR-RES, 70.6 µM (inactive).
Regarding `N/C(=N\N=C\c1cc2ccccc2s1)c1cnccn1`, the GI50 in the test with SK-MEL-28 was > 100 µM (inactive); in the test on BT-549 it was > 100 µM (inactive); with NCI-H23, > 100 µM (inactive); in the test on SF-539, > 100 µM (inactive); in the test with HCT-15, greater than 100 µM; in the test with HL-60, > 100 µM (inactive). Moreover, the GI50 in the test on CCRF-CEM is 53.3 µM (inactive); in the test with HCT-116 it was > 100 µM (inactive); in the test on K562, 3.85 µM (inactive); in the test with ACHN, > 100 µM (inactive); in the test on OVCAR-8, 78.2 µM (inactive); in the test with HOP-62 it was > 100 µM (inactive). In addition, the GI50 is > 100 µM (inactive) in the test on MDA-MB-435; 8.93 µM (inactive) in the test with T47D; > 100 µM (inactive) in the test on SN12C; 84.5 µM (inactive) in the test with SF-295; > 100 µM (inactive) with UO-31; > 100 µM (inactive) in the test with NCI/ADR-RES.
`CSc1nn(C)cc2ncnc1-2`: the GI50 with SK-MEL-28 is > 100 µM (inactive); in the test on BT-549 it was > 100 µM (inactive); in the test on NCI-H23, > 100 µM (inactive); in the test with SF-539, > 100 µM (inactive); in the test with HCT-15, greater than 100 µM; in the test on HL-60, > 100 µM (inactive). The GI50 in the test with CCRF-CEM, in the test with HCT-116, with K562, in the test on ACHN, in the test on OVCAR-8 and in the test on HOP-62 was > 100 µM (inactive) each time. The GI50 with MDA-MB-435, with T47D, with SN12C, in the test on SF-295, in the test with UO-31 and in the test on NCI/ADR-RES was > 100 µM (inactive) in each case.
Regarding `CCOC(=O)[C@@]12CCC(C1=O)[C@](C)(O)C[C@@H]2c1ccccc1`, the GI50 in the test with SK-MEL-28 was 79.3 µM (inactive); in the test with BT-549, 58.5 µM (inactive); with NCI-H23, 66.5 µM (inactive); in the test on SF-539 it was 32.7 µM (inactive); with HCT-15, 25.8 µM; in the test with HL-60 it was 24.3 µM (inactive). For the same compound, the GI50 was 79.4 µM (inactive) with CCRF-CEM; 32.6 µM (inactive) with HCT-116; 30.4 µM (inactive) in the test with K562; 53.2 µM (inactive) in the test on ACHN; 54.8 µM (inactive) with OVCAR-8; 71.1 µM (inactive) in the test with HOP-62. The GI50 with MDA-MB-435 was 8.07 µM (inactive); in the test with T47D, 39 µM (inactive); in the test with SN12C it was 24.8 µM (inactive); with SF-295, 32.7 µM (inactive); in the test on UO-31, > 100 µM (inactive); in the test with NCI/ADR-RES it was 29 µM (inactive).
Consider `Nc1n[n+](-c2ccccc2)no1`, for which the GI50 in the test on LXFL 529 is 5.26 µM (inactive); in the test with NCI-H23, 65.3 µM (inactive); in the test with SF-539, 51.4 µM (inactive); in the test on HCT-15, 28.1 µM; with HL-60, 14.9 µM (inactive); in the test on CCRF-CEM it was 31.8 µM (inactive). Also, the GI50 with HCT-116 was 28.3 µM (inactive); in the test with K562, 4.85 µM (inactive); in the test with ACHN, 8.49 µM (inactive); with OVCAR-8 it was 80 µM (inactive); in the test on HOP-62, 31.6 µM (inactive); in the test with SN12C, 82.4 µM (inactive). The GI50 was 33.8 µM (inactive) with SF-295 and 83.4 µM (inactive) with UO-31.
`Cc1nccn1S(=O)(=O)c1ccc(Cl)cc1`: the GI50 in the test with SK-MEL-28 is 94 µM (inactive); in the test on BT-549, 74.5 µM (inactive); with NCI-H23 it was 39.6 µM (inactive); in the test on SF-539, 32.7 µM (inactive); in the test with HCT-15 it was 41.6 µM; in the test with HL-60 it was 22.9 µM (inactive). The GI50 in the test on CCRF-CEM is 41 µM (inactive); with HCT-116, 30.5 µM (inactive); in the test on K562, 37.8 µM (inactive); in the test on ACHN, 95.9 µM (inactive); in the test on OVCAR-8, 59.2 µM (inactive); with HOP-62, 58.2 µM (inactive). In addition, the GI50 in the test on MDA-MB-435 is 22.7 µM (inactive); in the test with T47D, 38 µM (inactive); in the test with SN12C, 37.8 µM (inactive); in the test on SF-295, 67.6 µM (inactive); in the test on UO-31 it was 58.3 µM (inactive); in the test on NCI/ADR-RES, 43.6 µM (inactive).
For `CCN1CCC(O)(c2ccc([N+](=O)[O-])cc2)C(C(=O)c2ccc([N+](=O)[O-])cc2)C1` (stereo not drawn), the GI50 in the test with SK-MEL-28 was 16.6 µM (inactive); in the test on BT-549, 16.9 µM (inactive); with NCI-H23, 19.5 µM (inactive); with SF-539, 14.3 µM (inactive); in the test with HCT-15 it was 21.3 µM; with HL-60, 41.5 µM (inactive). The GI50 with CCRF-CEM is 11.9 µM (inactive); in the test with HCT-116, 17.2 µM (inactive); in the test on K562 it was 36.8 µM (inactive); in the test on ACHN, 17.8 µM (inactive); in the test with OVCAR-8 it was 30.1 µM (inactive); in the test with HOP-62 it was 77.3 µM (inactive). The GI50 with MDA-MB-435 is 20.5 µM (inactive); in the test on T47D, 23.3 µM (inactive); in the test with SN12C, 21.1 µM (inactive); in the test with SF-295 it was > 100 µM (inactive); in the test with UO-31, 17.3 µM (inactive); in the test on NCI/ADR-RES it was 53.8 µM (inactive).
